Assay results as given in patent US20230235301A1, “Compounds and Methods for Treating, Ameliorating, or Preventing Herpes Ocular Keratitis” (THE TRUSTEES OF THE UNIVERSITY OF PENNSYLVANIA, priority 2020, published 2023).
Positions of bridges follow the written chain, without caps; N, C: chain ends. Non-standard residues stand in square brackets, D forms with d. Residues, ends and D or L forms follow the SMILES beside them. No end group written: not given here. R8 = C=CCCCCCC[C@@](C)(N)C(=O)O; S5 = C=CCCC[C@](C)(N)C(=O)O

Key:
[1] = test system: Vero cells; assay: Cytotoxicity observed in the plaque reduction assays; assay type: cell-based, African green monkey
Protocol: (§1) Cells with ~90% confluence in 48-well plates were infected by absorbing virus (~100 PFU/well) for 1 h in 100 µL growth medium followed by adding 200 µL culture medium containing DMSO vehicle or serially diluted peptides or Acyclovir (Tocris Bioscience-Fisher Scientific) to each well of the plate. DMSO was maintained at 1% throughout the treatment. Cells were subsequently fixed and stained with 300 µL PBS containing 4% formaldehyde and 0.2% crystal violet overnight at room temperature. HSV-1 plaques were quantified at ~55 h post-infection of Vero cells. VV (WR strain) infection of BSC-1 cells was analyzed for plaque formation after 24 h. The plaque reduction assays were performed in duplicate and independently repeated twice. Cells were stained, and plaques counted under a dissecting microscope. Data were plotted on the GraphPad Prism.
Cellular cytotoxicity of the N-terminal substituted stapled peptides was also assessed. S-pep7A caused observable cell death at 50 µM in the plaque assays.

[2] = test system: HSV-1; assay: microbe, parasite or virus in culture; assay type: cell-based; conditions: 1 h
Protocol: as §1
Standard viral plaque reduction assays were conducted in Vero cells to determine if any of the five stapled peptides (S-pep1/3/4/7/8) that were able to block processive DNA synthesis, could also block HSV-1 infection. To minimize possible interference of HSV-1 cell attachment and entry by the peptides, cells were first infected by absorbing the virus for 1 h, followed by treatment with peptides at serial dilutions. […] The EC50 values of both S-pep3 and S-pep8 were approximately 100 µM (FIG. 15C and FIG. 15F). Additionally, S-pep4 was toxic at 12.5 µM, which precluded further optimization.

[3] = Cytotoxicity and cell viability assays (ATP content, LDH leakage) in Vero cells; assay type: cell-based; conditions: African green monkey, 24 h treatment
Protocol: (§2) Cells were grown in 96-well plates to ~80% confluence and treated with peptides at different concentrations in 150 µL growth medium containing 1% DMSO. At 24 h post-treatment, 100 µL of the culture medium was used for the lactate dehydrogenase (LDH) cytotoxicity assay. In addition, the cells from the same treatment were assessed with an ATP-based cell viability assay. Briefly, after the growth medium was completely removed, the cells were lysed in 100 µL of 1% Triton X-100 in PBS per well at room temperature. After 10 min, 5 µL of lysate was used for ATP-based luciferase/luminescence assay according to the manufacturer’s protocol (Invitrogen, USA). The assays were performed in triplicate and independently repeated twice.

[4] = test system: vaccinia virus (VV, WR strain); assay type: cell-based; conditions: BSC-1 cells, plaques after 24 h
[5] = test system: HSV-1; assay: HSV-1 infection of human 3D organotypic corneal culture; assay type: cell-based; conditions: 25 µM, 5 days treatment, 3D organotypic corneal tissue
Excerpt: Cultures were assembled with human dermal fibroblasts isolated from newborn foreskins and primary human corneal epithelial cells isolated from unused sclerolimbal rings from corneal transplants. After three weeks, organotypic cultures with differentiated corneal epithelial cells overlaying a layer of fibroblasts are established, reproducing the organization of the anterior corneal surface (FIG. 23A).
The assembled 3D organotypic corneal culture was infected with HSV-1 by gently abrading the surface and topically applying 10^6 PFU/mL of HSV-1. After 1 h, unabsorbed virus was removed, and the culture was incubated in medium containing 25 µM S-pep7B in 0.5% DMSO. Treatment occurred over a period of 5 days, in which the medium containing S-pep7B was refreshed every other day. The corneal tissues were examined microscopically each day. At the end of the treatment period, the 3D tissue was cut in half, using the first half to measure the virus titer by plaque assay and the other half for histological examination.

[6] = test system: HSV-1 viral DNA (UL42 gene); assay: HSV-1 DNA replication in infected Vero cells (UL42 gene PCR); assay type: cell-based
Protocol: Confluent Vero cells in 48-well plates were infected by absorbing 10^5 PFU of HSV-1 (MOI ~1) for 1 h in 100 µL of DMEM medium containing 5% FBS. Unabsorbed virus was removed by washing the wells 4 times with PBS. Cells were then treated with S-pep7B (SEQ ID NO:32) peptide in triplicate at different dilutions in 300 µL growth medium containing 1% DMSO. At 4 h post-treatment, cells of each triplicate treatment were combined and lysed with 20 mM Tris buffer (pH 7.5) containing 20 mM EDTA, 0.5% SDS, and 0.5 mg/mL proteinase K. Total DNA was then prepared from the lysed cells with phenol/chloroform extraction and ethanol precipitation, and used for UL42 gene amplification by PCR using the primers described above for plasmid construction. After agarose gel electrophoresis, UL42 DNA levels were quantitated using an image capture and analysis system (G:Box Chemi HR, Syngene) and normalized to that of the cellular house-keeping gene GAPDH (glyceraldehyde-3-phosphate dehydrogenase), which was amplified using primers (forward: 5′-[…]-3′ (SEQ ID NO:55), and reverse: 5′-[…]-3′) (SEQ ID NO:56). The assays were independently repeated twice.
Experiments were subsequently performed to determine if the HSV-1 antiviral activity of S-pep7B was specifically due to the inhibition of viral DNA replication. […]

[7] = ATP-based cytotoxicity in human primary corneal epithelial cells; assay type: cell-based; conditions: read-out: CC50 by ATP measurement
Protocol: as §2

[8] = molecular target: T1, HSV-1 Processivity Factor (UL42) (HSV-1 (strain KOS), UniProt P10226 1-488); assay: cell-based or functional assay
T1 sequence: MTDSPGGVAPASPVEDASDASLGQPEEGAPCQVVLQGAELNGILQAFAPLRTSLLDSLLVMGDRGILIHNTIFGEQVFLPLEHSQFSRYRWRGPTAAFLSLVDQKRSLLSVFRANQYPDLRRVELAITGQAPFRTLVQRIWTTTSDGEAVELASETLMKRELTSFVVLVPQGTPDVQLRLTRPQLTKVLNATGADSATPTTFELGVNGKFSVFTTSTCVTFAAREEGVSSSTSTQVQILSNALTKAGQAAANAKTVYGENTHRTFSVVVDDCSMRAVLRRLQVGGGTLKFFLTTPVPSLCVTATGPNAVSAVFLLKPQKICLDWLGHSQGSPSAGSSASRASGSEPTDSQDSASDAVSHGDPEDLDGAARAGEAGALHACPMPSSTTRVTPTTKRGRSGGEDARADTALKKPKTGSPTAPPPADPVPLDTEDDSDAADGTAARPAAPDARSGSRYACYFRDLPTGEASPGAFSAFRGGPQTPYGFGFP

CC(=O)N[C@@H](CCCNC(=N)N)C(=O)N[C@H](C(=O)N[C@@H](CCCNC(=N)N)C(=O)N[C@@H](CCCNC(=N)N)C(=O)N[C@@]1(C)CCCC=CCCC[C@@](C)(C(=O)N[C@@H](Cc2ccccc2)C(=O)N[C@@H](CC(=O)O)C(=O)N[C@H](C(=O)N[C@@H](CC(C)C)C(=O)N[C@@H](C)C(=O)O)[C@@H](C)O)NC(=O)[C@H](CCCNC(=N)N)NC(=O)[C@H](Cc2c[nH]cn2)NC(=O)[C@H](CC(C)C)NC1=O)[C@@H](C)O [S-pep7C, Ac-RTRRXLHRXFDTLA] (Ac-RTRR[S5]LHR[S5]FDTLA-OH; staple 5-9; C-terminus assumed)
concentration at which toxicity / cell death was observed in the plaque assays [1]: 5 µM

CC(=O)N[C@@H](CCCNC(=N)N)C(=O)N[C@@H](CCCNC(=N)N)C(=O)N[C@H](C(=O)N[C@@H](CCCNC(=N)N)C(=O)N[C@@H](CCCNC(=N)N)C(=O)N[C@@]1(C)CCCC=CCCC[C@@](C)(C(=O)N[C@@H](Cc2ccccc2)C(=O)N[C@@H](CC(=O)O)C(=O)N[C@H](C(=O)N[C@@H](CC(C)C)C(=O)N[C@@H](C)C(=O)O)[C@@H](C)O)NC(=O)[C@H](CCCNC(=N)N)NC(=O)[C@H](Cc2c[nH]cn2)NC(=O)[C@H](CC(C)C)NC1=O)[C@@H](C)O [S-pep7D, Ac-RRTRRXLHRXFDTLA] (Ac-RRTRR[S5]LHR[S5]FDTLA-OH; staple 6-10; C-terminus assumed)
concentration at which toxicity / cell death was observed in the plaque assays [1]: 5 µM

CC(=O)N[C@H](C(=O)N[C@H](C(=O)N[C@@H](CCCNC(=N)N)C(=O)N[C@@H](CCCNC(=N)N)C(=O)N[C@@]1(C)CCCC=CCCC[C@@](C)(C(=O)N[C@@H](Cc2ccccc2)C(=O)N[C@@H](CC(=O)O)C(=O)N[C@H](C(=O)N[C@@H](CC(C)C)C(=O)N[C@@H](C)C(=O)O)[C@@H](C)O)NC(=O)[C@H](CCCNC(=N)N)NC(=O)[C@H](Cc2c[nH]cn2)NC(=O)[C@H](CC(C)C)NC1=O)[C@@H](C)O)C(C)C [S-pep7A, Ac-VTRRXLHRXFDTLA] (Ac-VTRR[S5]LHR[S5]FDTLA-OH; staple 5-9; C-terminus assumed)
concentration at which toxicity / cell death was observed in the plaque assays [1]: 50 µM
EC50 [2]: 9.6 µM

CC(=O)N[C@@H](CCCNC(=N)N)C(=O)N[C@@H](CCCNC(=N)N)C(=O)N[C@@]1(C)CCCC=CCCCCCC[C@](C)(C(=O)N[C@@H](CC(C)C)C(=O)N[C@@H](C)C(=O)O)NC(=O)[C@H](CC(=O)O)NC(=O)[C@H](Cc2ccccc2)NC(=O)[C@H](C)NC(=O)[C@H](CCCNC(=N)N)NC(=O)[C@H](Cc2c[nH]cn2)NC(=O)[C@H](CC(C)C)NC1=O [S-pep4, Ac-RRXLHRAFDZLA] (Ac-RR[S5]LHRAFD[R8]LA-OH; staple 3-10; C-terminus assumed)
concentration at which toxicity / cell death was observed in the plaque assays [1]: 12.5 µM

CC(=O)N[C@H](C(=O)N[C@H](C(=O)N[C@H](C(=O)N[C@@H](CCCNC(=N)N)C(=O)N[C@@H](CCCNC(=N)N)C(=O)N[C@@]1(C)CCCC=CCCC[C@@](C)(C(=O)N[C@@H](Cc2ccccc2)C(=O)N[C@@H](CC(=O)O)C(=O)N[C@H](C(=O)N[C@@H](CC(C)C)C(=O)N[C@@H](C)C(=O)O)[C@@H](C)O)NC(=O)[C@H](CCCNC(=N)N)NC(=O)[C@H](Cc2c[nH]cn2)NC(=O)[C@H](CC(C)C)NC1=O)[C@@H](C)O)C(C)C)C(C)C [S-pep7B, Ac-VVTRRXLHRXFDTLA] (Ac-VVTRR[S5]LHR[S5]FDTLA-OH; staple 6-10; C-terminus assumed)
concentration at which toxicity / cell death was observed in the plaque assays [1]: no visible cytotoxicity
CC50 at 24 h ([3]; read-out: CC50, LDH leakage): 126 µM
CC50 at 24 h ([3]; read-out: CC50, intracellular ATP content): 114 µM
EC50 [2]: 9.8 µM
inhibition of VV infection of cells [4]: did not inhibit
HSV-1 structural gB protein (immunostaining) [5]: complete absence
nuclear morphology (DAPI staining) [5]: unremarkable nuclear morphology
viral DNA level relative to time point 0 h ([6]; 50 µM, 4 h post-treatment): completely suppressed
UL42 DNA levels in infected cells ([6]; MOI ~1, 4 h post-treatment, increasing concentrations, normalized to GAPDH): greatly reduced
CC50 at 24 h [7]: 31.2 µM

Ac-ETRRMLHRAFDTLA [Native peptide (N-pep)]
IC50 of in vitro processive DNA synthesis directed by recombinant UL30 and UL42 [8]: > 200 µM
